Square brackets hold non-standard residues; d marks the D form. Peptide text beside a SMILES is read from it. * marks the point of attachment. ξ: configuration not given here. Adenosine(5'-uronoyl) = Nc1ncnc2c1ncn2[C@@H]1O[C@H](C(=O)*)[C@@H](O)[C@H]1O; Biotin = O=C1N[C@H]2[C@H](CS[C@H]2CCCCC(=O)*)N1; NHCH2CH2OCH2CH2OMe = COCCOCCN*; NH(CH2)6NH2 = NCCCCCCN*; ξK = NCCCCC(N)C(=O)O; Ahx = NCCCCCC(=O)O
Assay: Inhibition of cAMP dependent Protein kinase A (PKA) catalytic subunit from bovine heart
Parameters: species or system Bos taurus

Which IC50 does the source give for `COCCOCCNC(=O)C(CCCCNC(=O)CCCC[C@@H]1SC[C@@H]2NC(=O)N[C@@H]21)NC(=O)[C@H](CCCN=C(N)N)NC(=O)[C@H](CCCN=C(N)N)NC(=O)[C@H](CCCN=C(N)N)NC(=O)[C@H](CCCN=C(N)N)NC(=O)CCCCCNC(=O)[C@H]1O[C@@H](n2cnc3c(N)ncnc32)[C@H](O)[C@@H]1O` (stereo not given in full) ({Adenosine(5'-uronoyl)-Ahx}-RRRR[ξK](Biotin)-NHCH2CH2OCH2CH2OMe) here?
The IC50 was 1.2 µM.

For `NCCCCCCNC(=O)[C@H](CCCN=C(N)N)NC(=O)[C@H](CCCN=C(N)N)NC(=O)[C@H](CCCN=C(N)N)NC(=O)[C@H](CCCN=C(N)N)NC(=O)CCCCCNC(=O)[C@H]1O[C@@H](n2cnc3c(N)ncnc32)[C@H](O)[C@@H]1O` ({Adenosine(5'-uronoyl)-Ahx}-RRRR-{NH(CH2)6NH2}), which IC50 is on record?
The IC50 was 0.68 µM.

Which IC50 does the source give for `N=C(N)NCCC[C@H](NC(=O)[C@H](CCCNC(=N)N)NC(=O)[C@H](CCCNC(=N)N)NC(=O)[C@H](CCCNC(=N)N)NC(=O)[C@H](CCCNC(=N)N)NC(=O)[C@H](CCCNC(=N)N)NC(=O)CCCCCNC(=O)[C@H]1O[C@@H](n2cnc3c(N)ncnc32)[C@H](O)[C@@H]1O)C(=O)O` here?
Its IC50 is 0.7 µM.

Which IC50 does the source give for `O=S(=O)(NCCNC/C=C/c1ccc(Br)cc1)c1cccc2cnccc12` here?
The IC50 was 0.135 µM.

Which IC50 does the source give for `COCCOCCNC(=O)C(CCCCN)NC(=O)[C@H](CCCN=C(N)N)NC(=O)[C@H](CCCN=C(N)N)NC(=O)[C@H](CCCN=C(N)N)NC(=O)[C@H](CCCN=C(N)N)NC(=O)CCCCCNC(=O)[C@H]1O[C@@H](n2cnc3c(N)ncnc32)[C@H](O)[C@@H]1O` (stereo not given in full) ({Adenosine(5'-uronoyl)-Ahx}-RRRR[ξK]-NHCH2CH2OCH2CH2OMe) here?
The IC50 was 0.46 µM.
